According to patent publication US10179116B2, “Methods, compositions, and kits for treating pain and pruritis” (President and Fellows of Harvard College, priority 2006, dated 2019):
Each block holds one compound with its values, some of them ahead of it.

Assays:
sodium current = assay: Sodium current with TRPA agonist mustard oil and QX-314 (Example 3); type: cell-based; conditions: MO alone, 50 μM
Experimental: MO alone reduces sodium current by 20-30% and reaches a plateau after approximately 3 minutes.

[1] = Sciatic nerve injection, thermal (radiant heat) response latency; type: in vivo, rat; conditions: QX-314 0.2%, 100 μL, capsaicin 0.5 μg/μL, 100 μL (for 30 min)
Experimental: (§1) Motor effects were scored according to a scale of 0 (no effect; normal gait and limb placement), 1 (limb movement but with abnormal limb placement and movement) or 2 (complete loss of limb movement). […] For co-application of QX-314 and capsaicin into the para-sciatic nerve region, we injected QX-314 first, followed 10 minutes later by capsaicin, with the idea that QX-314 would be present extracellularly and ready to enter TRPV1 channels as soon as they were activated.
(§2) For sciatic nerve injections, animals were first habituated to handling for 10 days. Lidocaine (0.2% or 2%, 100 μL); QX-314 (0.2%, 100 μL) alone; capsaicin (50 μg in 100 μL) alone, or QX-314 followed by capsaicin (10 minutes interval) were injected into the area of sciatic nerve below the hip joint. Mechanical and thermal thresholds were determined using von Frey filaments and radiant heat. […] Walking, climbing, walking on the rod and placing reflex were examined. […] All experiments were done with the experimenter blinded.

[2] = Sciatic nerve injection, mechanical threshold (von Frey filaments); type: in vivo, rat; conditions: QX-314 0.2%, 100 μL, capsaicin 0.5 μg/μL, 100 μL (for 30 min), or QX-314 then capsaicin, stiffest hair 57 g
Experimental: as §1, §2

[3] = Intraplantar injection, mechanical threshold for paw withdrawal (von Frey hairs); conditions: QX-314 10 μL of 2%, capsaicin 10 μg/10 μL (15 and 30 minutes), or together (15 minutes)
[4] = test system: small diameter DRG neurons; assay: Current clamp, action potential generation in small DRG neurons; type: cell-based, rat; conditions: QX-314 5 mM, capsaicin 1 μM, alone or co-applied
[5] = test system: voltage-dependent sodium channels; assay: Whole-cell voltage clamp of sodium current in small capsaicin-sensitive DRG neurons; type: cell-based, rat; conditions: n=25
Experimental: We recorded current through voltage-dependent sodium channels using whole-cell voltage clamp recordings from adult rat DRG neurons. To select for nociceptors, we recorded from small (24±5 μm; n=25) neurons and tested the neurons for the expression of TRPV1 receptors by a short (1-sec) application of 1 μM capsaicin. In 25/25 of small neurons tested, capsaicin produced a prolonged (10±3 sec) inward current (FIG. 1A, upper panel), consistent with the neurons being nociceptors. Sodium currents were elicited by depolarizing steps from a holding potential of −70 mV.
(§3) Dorsal root ganglia from 6-8 week old Sprague-Dawley rats were removed and placed into […] containing 1% penicillin—streptomycin (Sigma), then treated for 90 minutes with 5 mg/ml collagenase, 1 mg/ml Dispase II (Roche, Indianapolis, Ind.) and for 7 minutes with 0.25% trypsin, followed by addition of 2.5% trypsin inhibitor. Cells were triturated in the presence of […] (50 U), centrifuged through 15% BSA (Sigma), resuspended in 1 ml Neurobasal medium (Sigma), 10 μM AraC, NGF (50 ng/ml) and GDNF (2 ng/ml) and plated onto poly-lysine (500 μg/ml) and laminin (5 mg/ml) coated 35 mm tissue culture dishes (Becton Dickinson) at 8000-9000 per well. Cultures were incubated at 37° C., 5% carbon dioxide. Recordings were made within 48 hours after plating. […]

sodium channel = assay: Voltage clamp of sodium channel current in small dorsal root ganglion neurons with eugenol (Example 2); type: cell-based
Experimental: Co-application of eugenol and QX-314 produces progressive block that can be complete after 7 minutes. Two examples are depicted, which are representative of 10 experiments with similar results.
We have also shown that eugenol (C10H12O2), an allyl chain-substituted guaiacol, 2-methoxy-4-(2-propenyl)phenol (active ingredient in oil of clove, and a non-pungent agonist of TRPV1 receptors) promotes entry of QX-314 into dorsal root ganglion neurons by activating TRPV1 channels. FIG. 5 depicts voltage clamp recordings of sodium channel current in small dorsal root ganglion neurons. […] Co-application of eugenol and QX-314 produces progressive block that can be complete after 7 minutes. Two examples are depicted, which are representative of 10 experiments with similar results. […] Thus, these experiments indicate that eugenol promotes entry of QX-314 into dorsal root ganglion neurons by activating TRPV1 channels.

[6] = Sciatic nerve injection, motor function score and placing reflex
Experimental: as §1, §2

[7] = test system: voltage-dependent sodium channels; assay: Whole-cell voltage clamp of sodium current in large capsaicin-insensitive DRG neurons; type: cell-based, rat; conditions: 10-minute application, n=10
Excerpt: To test whether the ability of co-applied capsaicin and QX-314 to inhibit sodium current is selective for cells that express TRPV1 receptors, we also recorded from large DRG neurons (soma diameter >40 μm) (FIG. 1A, right). […] As for small diameter neurons, QX-314 applied alone had little or no effect on sodium current (current increased by 8±4% after a 10-minute application, n=10). Unlike small diameter neurons, capsaicin had no effect on sodium current in large diameter neurons (average increase by 3±2% after a 10-minute application, n=10).
as §3

[8] = Intraplantar injection, thermal (radiant heat) response latency; type: in vivo, rat; conditions: QX-314 at 30 min, capsaicin at 15 and 30 min, together at 2 hours, heat applied for 25 seconds
Experimental: Similar effects were seen examining sensitivity to a standardized noxious radiant heat stimulus. […] This effect remained for 4 hours after the injection (FIG. 3B).

TRPV1 receptors [9] = target: T1, TRPV1 receptors (Rattus norvegicus, UniProt O35433); assay: Capsaicin-evoked inward current in small DRG neurons (test for TRPV1 expression); type: cell-based; conditions: 1-sec application of 1 μM capsaicin
T1 construct: Dorsal root ganglia from 6-8 week old Sprague-Dawley rats were removed; endogenous in cells; host or cells: primary cultured DRG neurons from 6-8 week old Sprague-Dawley rats
T1 sequence (O35433 whole entry): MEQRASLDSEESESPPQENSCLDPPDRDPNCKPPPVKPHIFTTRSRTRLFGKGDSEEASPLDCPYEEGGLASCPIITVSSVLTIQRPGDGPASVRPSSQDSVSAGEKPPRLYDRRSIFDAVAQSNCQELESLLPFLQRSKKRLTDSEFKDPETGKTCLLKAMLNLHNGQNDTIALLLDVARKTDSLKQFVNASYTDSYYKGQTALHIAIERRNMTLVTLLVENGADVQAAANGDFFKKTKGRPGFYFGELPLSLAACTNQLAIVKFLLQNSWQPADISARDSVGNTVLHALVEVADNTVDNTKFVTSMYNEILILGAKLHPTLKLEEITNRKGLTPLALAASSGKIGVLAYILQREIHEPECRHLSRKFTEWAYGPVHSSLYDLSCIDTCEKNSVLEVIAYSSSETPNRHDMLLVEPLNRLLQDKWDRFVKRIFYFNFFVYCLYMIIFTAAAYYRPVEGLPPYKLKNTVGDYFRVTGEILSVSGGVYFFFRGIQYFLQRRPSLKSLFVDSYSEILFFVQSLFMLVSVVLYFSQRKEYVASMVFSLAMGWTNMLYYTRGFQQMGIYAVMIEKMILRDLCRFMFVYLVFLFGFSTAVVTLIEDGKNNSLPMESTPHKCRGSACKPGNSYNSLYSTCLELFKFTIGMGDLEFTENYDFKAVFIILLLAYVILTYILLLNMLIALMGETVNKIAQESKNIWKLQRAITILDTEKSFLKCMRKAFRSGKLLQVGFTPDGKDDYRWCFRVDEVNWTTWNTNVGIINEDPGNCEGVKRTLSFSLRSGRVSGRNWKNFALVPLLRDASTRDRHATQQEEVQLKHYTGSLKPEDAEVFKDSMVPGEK

[10] = Intraplantar injection, spontaneous flinching; conditions: first 5 min after intraplantar injection
TRPV1 receptors [11] = assay: Capsaicin-evoked inward current in large DRG neurons; type: cell-based, rat; conditions: soma diameter >40 μm; 10 of 10

Structure (SMILES): C=CCN=C=S [MO]
reduction of sodium current (sodium current): 20-30%
time to plateau of sodium current reduction (sodium current): approximately 3 minutes

Structure (SMILES): CC[N+](CC)(CC)CC(=O)Nc1c(C)cccc1C [QX-314]
effect on thermal response latency [1]: no significant effect
effect on mechanical threshold [2]: no significant effect
effect on mechanical threshold for withdrawal response [3]: no significant effect
effect on action potential [4]: no effect
decrease of sodium current ([5]; bath application of 5 mM QX-314 alone, 5-minute application): 3±0.5%
effect of external QX-314 alone on sodium channels (sodium channel; external application): no effect
effect on motor function ([6]; rat, in vivo): no effect on motor function
increase of sodium current ([7]; QX-314 alone): 8±4%
effect on thermal response latency / reaction to noxious radiant heat [8]: transiently reduced the thermal response latency

Structure (SMILES): COc1cc(CNC(=O)CCCC/C=C/C(C)C)ccc1O [capsaicin]
effect on thermal response latency [1]: reduced
effect on mechanical threshold [2]: reduced
effect on mechanical threshold for withdrawal response [3]: significantly reduced the mechanical threshold
effect on action potential [4]: reduced the action potential amplitude
inhibition of sodium current ([5]; capsaicin alone, 1 μM for 1-10 minutes): 31±9%
small neurons in which capsaicin produced inward current (TRPV1 receptors [9]): 25/25
duration of prolonged inward current (TRPV1 receptors [9]; small neurons): 10 ± 3 s
number of flinches [10]: 40±6
inward current elicited in large DRG neurons (TRPV1 receptors [11]): did not elicit an inward current
mean motor score ([6]; capsaicin alone 0.5 μg/μL, 100 μL, within 30 min after injection, scale 0-2): 0.7±0.2
animals with sustained flexion of the injected limb ([6]; sciatic injection): 4 out of the 6
effect on placing reflex ([6]; sciatic injection): unchanged
average increase of sodium current ([7]; capsaicin alone): 3±2%
effect on thermal response latency / reaction to noxious radiant heat [8]: reduced as expected the thermal response latency

Structure (SMILES): C=CCc1ccc(O)c(OC)c1 [eugenol, 2-methoxy-4-(2-propenyl)phenol]
inhibition of sodium current (sodium channel; eugenol alone): 10-20%

duration of complete loss of placing reflex ([6]; rat, in vivo): at least 30 minutes
effect on motor function ([6]; rat, in vivo): complete paralysis of the lower limb
time of full recovery of sensory and motor deficits ([6]; rat, in vivo): ≤ 45 min
mean motor score ([6]; rat, in vivo, 30 min): 1.67±0.2
Structure (SMILES): CCN(CC)CC(=O)Nc1c(C)cccc1C [lidocaine]
effect on placing reflex ([6]; rat, in vivo): complete loss of the tactile stimulus-evoked placing reflex
